One assay concerns NALM6 cells. The experiment in a line: Cell death assay (Presto Blue, 72 h) with dex plus inhibitor. In kind it is cell-based, human. The procedure:
Cells were plated in CellStar low evaporation lid 96-well round-bottom plate at a density of 100,000 cells/ml. Directly after plating, cells were treated in triplicate with serial dilutions of dexamethasone or vehicle control (0.1% ethanol). After 72 h, cell viability of each well was analyzed in duplicate using the Presto Blue Assay Reagent (Life Technologies). Fluorescence was measured and data were analyzed with Prism6 software.
FIGS. 40A, 40B, 40C, 40D-1, 40D-2, 40D-3, and 40D-4 show Aurora kinase B inhibitors sensitizing NALM6 cells to GC-induced cell death. As shown in FIGS. 40A and 40B, NALM6 cells were treated with the indicated dex concentration in addition to 0.75 μM ZM447439 (FIG. 40A), 16 nM AZD2811 (FIG. 40B), or equivalent volume of vehicle DMSO for 72 h, and cell survival was measured by a fluorescence metabolic assay. In each condition, the value measured with dex was normalized to the fluorescence value measured with ethanol. Percentage of survival is shown as the mean±SEM of 4 independent experiments and p-values for individual dex concentrations were calculated using a paired t-test. *p≤0.05, **p≤0.01, * * *p≤0.001. F-test comparing the two curves: p≤0.001. Insets show the EC50s that were calculated as the concentration at which half the cells remained alive, compare to vehicle controls. Error bars depict the SEM of 4 independent experiments and p-values were calculated to compare AURKB inhibitor treatment to DMSO using a paired t-test ** p≤0.01, * * *p≤0.001. […] The indicated proteins were then examined by immunoblot. As shown in FIGS. 40D-1, 40D-2, 40D-3, and 40D-4, NALM6 cells pre-treated with AZD2811 (16 nM) or DMSO for 24 h, were then treated for 8 h with 100 nM dex or ethanol. mRNA levels for the indicated GR target genes were measured by RT-qPCR and normalized to β-actin mRNA levels.
FIGS. 48A, 48B, 48C, 48D, 48E, and 48F show the effect of AURKB inhibitors on EHMT2 phosphorylation and dex-induced cell death. […] In each condition, the value measured with dex was normalized to the fluorescence value measured with ethanol. Percentage of survival is shown as the mean±SEM of 4 independent experiments and p-values for individual dex concentrations were calculated using a paired t-test. *p≤0.05, **p≤0.01, * * *p≤0.001. F-test comparing the two curves: p≤0.001. EC50s were calculated as the concentration at which half the cells remained alive, compare to vehicle controls. Error bars depict the SEM of 4 independent experiments and p-value was calculated to compare ZM treatment to DMSO using a paired t-test **p≤0.01, * * *p≤0.001. […] EC50s were calculated as the concentration at which half the cells remained alive, compare to vehicle controls. Error bars depict the SEM of 4 independent experiments and p-value was calculated to compare alisertib treatment to DMSO using a paired t-test. […] (E-F) RCH-ACV cells were treated with the indicated dex concentration in addition to 0.75 μM ZM447439 (FIG. 48E), 16 nM AZD2811 (FIG. 48F), or DMSO for 72 h, and cell survival was measured by a fluorescence metabolic assay. In each condition, the value measured with dex was normalized to the fluorescence value measured with ethanol. Percentage of survival is shown as the mean±SEM of 5 individual experiments and the p-value for each dex concentration was calculated using a paired t-test. *p≤0.05, **p≤0.01, * * *p≤0.001. F-test comparing the two curves: p≤0.001.
FIGS. 55A, 55B, and 55C show JIB-04 enhances GC-induced death of B-ALL cell line NALM6.

Assay [1] deals with G9a and GLP coactivator function with GR. The experiment in a line: Transient MMTV-LUC luciferase reporter gene assay in CV-1 cells (GR, GRIP1, G9a or GLP). Type of assay: cell-based, human. The procedure: CV-1 cells were plated in hormone-free medium with 5% charcoal-stripped serum in 24-well plates the day before transfection. Cells were transfected using Lipofectamine 2000 (Invitrogen) with the indicated plasmids according to the manufacturer's protocol. After transfection, the cells were grown in hormone-free medium for 48 h in the presence or absence of 100 nM dex. Cell lysis and luciferase assays on cell extracts were performed with Promega luciferase assay kit. An aliquot of the cell lysate was reserved for immunoblot analysis of input samples. The results were normalized as indicated and presented as the mean±SEM of at least four independent experiments.
The results as shown in FIGS. 20A-20D generally highlight that G9a and GLP PTMs regulate their coactivator function. For FIG. 20A, CV-1 cells were transfected with MMTV-LUC reporter plasmid (200 ng) and plasmids encoding GR (1 ng), Grip1 (100 ng) and HA-labeled full length (FL) hG9a wild type or K185A or K185R mutants (150 or 400 ng) as indicated. Cells were grown with 100 nM dex or the equivalent amount of ethanol for 48 h and assayed for luciferase activity. Relative luciferase units are normalized to sample 3 and represent mean±SEM for eight independent experiments. p-value was calculated using a paired t-test. *p≤0.05, **p≤0.01. Whole-cell extracts were analyzed for G9a expression by immunoblot with anti-HA antibody. For FIG. 20B, transient reporter gene assays were performed as in A with HA-labeled hGLP WT or hGLP K205A (150 or 400 ng) as indicated. Relative luciferase units are normalized to sample 3 and represent mean±SEM for six independent experiments. p-value was calculated using a paired t-test. *p≤0.05. […] Relative luciferase units are normalized to sample 3 and represent mean±SEM for four independent experiments. p-value was calculated using a paired t-test. * * *p≤0.001. […] Relative luciferase units are normalized to sample 3 and represent mean±SEM for four independent experiments. p-value was calculated using a paired t-test. *p≤0.05. […]
(A reporter such as luciferase makes a cellular process visible.)

The record followed here is patent US20200181284A1, “EPIGENETIC INHIBITORS FOR SENSITIZING HEMATOLOGIC OR OTHER MALIGNANCIES TO GLUCOCORTICOID THERAPY” (UNIVERSITY OF SOUTHERN CALIFORNIA, priority 2017, published 2020).

On to `Clc1ccc(N/N=C(\c2ccccc2)c2ccccn2)nc1` [JIB-04, 5-chloro-N-[(E)-[phenyl(pyridin-2-yl)methylidene]amino]pyridin-2-amine], for which the “GC-induced death of NALM6 cells” value in the assay with NALM6 cells (72 hours with various dex concentrations plus KDM inhibitor) is given as “effectively enhanced”. The “dex-induced expression of the reporter gene” value is “enhanced” in assay [1] (GR, GRIP1 and wild type G9a); “no effect” in assay [1] (mutant G9a with the methylation site mutated from lysine to arginine).

As for `COc1cc2c(Nc3ccc(NC(=O)c4ccccc4)cc3)ncnc2cc1OCCCN1CCOCC1` [ZM447439, N-[4-[[6-methoxy-7-(3-morpholin-4-ylpropoxy)quinazolin-4-yl]amino]phenyl]benzamide], the “sensitivity of NALM6 cells to dex-induced apoptosis” value with NALM6 cells (0.75 µM ZM447439 stronger effect than 0.625 μM, 72 h) is “significantly sensitized”. Besides, the “coactivator function of G9a and GLP, in cooperation with GRIP1” value in assay [1] (100 nM dex and 2 μM ZM447439, 48 h) is reported as “significantly enhanced”.
